What was measured:
[1] = biological target: neuraminidase of A(H1N1)pdm09-S247N isolate (A/NRW/142/2019) (Influenza A virus, UniProt A0A0X9QTS2, S247N); assay type: biochemical
[2] = test system: A(H3N2) PA-I38M isolate (A/Berlin/9/2020); assay type: cell-based, influenza A(H3N2)

Row | SMILES | IC50 increase [1] | reduction of antiviral activity [2]
1 | CCC(CC)[C@H](NC(C)=O)[C@@H]1[C@H](O)[C@@H](C(=O)O)C[C@H]1N=C(N)N [Peramivir, peramivir] | up to 7 fold | 
2 | CC(=O)N[C@H]1[C@H]([C@H](O)[C@H](O)CO)OC(C(=O)O)=C[C@@H]1N=C(N)N [Zanamivir, zanamivir] | up to 7 fold | 
3 | COC(=O)OCOc1c2n(ccc1=O)N([C@@H]1c3ccccc3SCc3c1ccc(F)c3F)[C@@H]1COCCN1C2=O [baloxavir marboxil, Baloxavir marboxil] |  | up to 5 fold
